Assay [1] concerns the target T1, DNA topoisomerase 1 (Homo sapiens) (UniProt P11387).
T1 sequence (whole entry): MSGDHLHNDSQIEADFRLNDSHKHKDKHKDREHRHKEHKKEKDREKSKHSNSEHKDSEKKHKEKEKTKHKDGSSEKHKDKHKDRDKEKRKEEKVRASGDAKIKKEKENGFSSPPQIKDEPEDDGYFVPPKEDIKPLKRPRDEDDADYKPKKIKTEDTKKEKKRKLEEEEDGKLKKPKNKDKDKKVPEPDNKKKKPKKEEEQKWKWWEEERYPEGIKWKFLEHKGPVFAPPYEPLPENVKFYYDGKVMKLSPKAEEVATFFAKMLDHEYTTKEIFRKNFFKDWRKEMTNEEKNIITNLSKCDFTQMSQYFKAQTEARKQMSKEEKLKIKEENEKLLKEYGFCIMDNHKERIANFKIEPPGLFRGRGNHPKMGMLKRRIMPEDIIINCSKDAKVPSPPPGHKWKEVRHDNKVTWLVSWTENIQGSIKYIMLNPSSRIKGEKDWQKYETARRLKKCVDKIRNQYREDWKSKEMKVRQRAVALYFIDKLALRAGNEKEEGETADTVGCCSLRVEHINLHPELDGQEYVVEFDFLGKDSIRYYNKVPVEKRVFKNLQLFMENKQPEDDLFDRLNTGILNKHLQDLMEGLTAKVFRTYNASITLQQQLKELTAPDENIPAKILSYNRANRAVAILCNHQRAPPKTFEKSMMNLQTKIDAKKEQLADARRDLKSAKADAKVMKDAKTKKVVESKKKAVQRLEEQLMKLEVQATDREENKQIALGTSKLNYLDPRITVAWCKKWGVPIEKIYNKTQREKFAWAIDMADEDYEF
As to the kind of experiment: Inhibition of topoisomerase 1 at 3 uM.

In assay [2] the target is T1, DNA topoisomerase 1 (Homo sapiens). As to the kind of experiment: Inhibition of topoisomerase 1 assessed as attenuation of DNA relaxation.
For assay [3], the system named is K562. As to the kind of experiment: Resistance index, Ratio of IC50 for human drug-resistant K562i/S9 cells to IC50 for human K562 cells. It is filed as functional.
Assay [4] can be described thus: Antiproliferative activity against human multidrug-resistant K562i/S9 cells expressing Pgp after 72 hrs by MTT test. It is filed as functional, cell-based. The conditions noted are these: K562i/S9, 72 h. A general note: Tetrazolium assays rely on reduction of a dye to a coloured formazan, in cell work by metabolically active cells.
The subject of assay [5] is HCT-116. Description: Antiproliferative activity against human HCT116 cells expressing wild-type p53 after 72 hrs by MTT test. The class given is functional, cell-based. The conditions noted are these: HCT-116, 72 h.
For assay [6], the system named is HCT-116. Description: Resistance index, Ratio of IC50 for human p53 deficient HCT116 p53-/- cells to IC50 for human wild type HCT116 cells. The class given is functional.
Assay [7] can be described thus: Antiproliferative activity against human p53 deficient HCT116 p53-/- cells after 72 hrs by MTT test. The class given is functional, cell-based. The conditions noted are these: HCT-116, 72 h.
In assay [8] the test system is K562. As to the kind of experiment: Antiproliferative activity against human K562 cells after 72 hrs by MTT test. The settings on record: K562, 72 h. The class given is functional, cell-based.
The target in assay [9] is T1, DNA topoisomerase 1 (Homo sapiens). Description: Inhibition of topoisomerase 1 at >50 uM.

A word on the IC50: it is the midpoint of a concentration-inhibition curve. A higher IC50 goes with lower potency.

Active and inactive are the calls of the source. No cut-off for these calls is given here.

Take `NCCc1c[nH]c2c(O)c3c(c(O)c12)C(=O)c1ccccc1C3=O`: the outcome in [1] was Active. Moreover, the Activity entry in [2] was “Dose-dependent effect”. The “Ratio IC50” value in the assay with K562 [3] was determined as 0.6; in the assay with HCT-116 [6], 1.1. Moreover, the IC50 is 2.2 µM in assay [4], 1.1 µM in the assay on HCT-116 [5], 1.2 µM in assay [7] and 4 µM in the assay on K562 [8].

With `NC(Cc1c[nH]c2c(O)c3c(c(O)c12)C(=O)c1ccccc1C3=O)C(=O)O` (stereo unspecified), the IC50 with HCT-116 [5] and in the assay on K562 [8] was over 50 µM throughout.

As to `COc1cccc2c1C(=O)c1c(O)c3c(c(O)c1C2=O)C[C@@](O)(C(=O)CO)C[C@@H]3O[C@H]1C[C@H](N)[C@H](O)[C@H](C)O1` [DOXORUBICIN], the result in assay [9] was Active. In addition, the IC50 was 1.4 µM with HCT-116 [5] and 4.4 µM in [7].

For `CC(N)Cc1c[nH]c2c(O)c3c(c(O)c12)C(=O)c1ccccc1C3=O` (stereo unspecified), the figures for the “Ratio IC50” value in the assay on K562 [3] and with HCT-116 [6] were 1.1 and 1, respectively. Also, the half-inhibitory concentration (IC50) came out at 13.4 µM in assay [4], 4.8 µM in the assay on HCT-116 [5], 5 µM in [7] and 12 µM with K562 [8].

With `CCOC(=O)C(N)Cc1c[nH]c2c(O)c3c(c(O)c12)C(=O)c1ccccc1C3=O` (stereo unspecified), the IC50 is 14.9 µM in the assay on HCT-116 [5] and over 50 µM in the assay with K562 [8].

The record behind these values is ChEMBL document CHEMBL1142919, “Naphthoindole-based analogues of tryptophan and tryptamine: synthesis and cytotoxic properties” (Bioorg Med Chem, 2007).
